Laboratory results published in publication PMC9781803, “Phenotypic and Target-Directed Screening Yields New Acaricidal Alternatives for the Control of Ticks” (Molecules, 2022).
Where two headings read alike, the source gives them in different places.

Key:
[1] = target: R. microplus triosephosphate isomerase (RmTIM) (Rhipicephalus microplus, UniProt A8B3A8); experiment: biochemical; conditions: for inhibition at 100 µM / inhibition at 10 µM: 1 h incubation, read-out: % Inhibition of Enzymatic Activity of RmTIM; for IC50: RmTIM
Chain of R. microplus triosephosphate isomerase (RmTIM) (A8B3A8 entry or part of it): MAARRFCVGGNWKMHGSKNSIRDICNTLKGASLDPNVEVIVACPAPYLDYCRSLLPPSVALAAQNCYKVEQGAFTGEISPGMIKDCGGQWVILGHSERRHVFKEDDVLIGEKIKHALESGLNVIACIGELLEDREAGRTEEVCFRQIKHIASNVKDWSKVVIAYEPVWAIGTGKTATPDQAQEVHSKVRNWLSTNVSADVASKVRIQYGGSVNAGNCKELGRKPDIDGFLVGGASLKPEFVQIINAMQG
Description: (§1) R. microplus triosephosphate isomerase (RmTIM) and Homo sapiens triosephosphate isomerase (HsTIM) were expressed in Escherichia coli, and purified as previously described in the literature. Protein concentration was determined by absorbance measurements at 280 nm for RmTIM (ε = 33440 M^−1cm^−1) and HsTIM (ε = 33460 M^−1cm^−1). Enzymatic activity was determined following the reaction of the conversion of glyceraldehyde-3-phosphate to dihydroxyacetone phosphate in a coupled enzyme assay using α-glycerol-phosphate dehydrogenase. The decrease in absorbance at 340 nm was recorded in a multiplate reader Varioskan™ Flash Multimode Reader (Thermo Scientific^TM, Waltham, MA, USA) at 25 °C. The reaction mixture ([…], pH 7.4) contained 100 mM triethanolamine, 10 mM EDTA, 0.2 mM NADH, 1 mM glyceraldehyde-3-phosphate, and 0.9 units of α-glycerol-phosphate dehydrogenase. The reaction was initiated by the addition of 5 ng/mL of the TIM of interest. For the inhibition studies (incubation mixture), TIM was incubated at a concentration of 5 mg/mL in a buffer of pH 7.4 containing 100 mM triethanolamine, 10 mM EDTA, and 10% DMSO at 25 °C for 1 h. The mixture also contained the compounds, dissolved in DMSO, at final concentrations of 10 and 100 μM. After 1 h, 10 μL of the incubation mixture was added to the reaction mixture, to a final volume of 100 μL in a 96-well plate. None of the molecules tested here affected the activity of α-glycerol-phosphate dehydrogenase (checked in situ on the reaction mixture inhibited, with the addition of fresh α-glycerol-phosphate dehydrogenase and running the measurement again). The IC50 value was taken as the concentration of drug needed to reduce the enzymatic activity by 50%, and was analyzed using OriginLab 8.5 Corporation, Northampton, MA, USA, sigmoidal regression (% of enzymatic activity vs. the logarithm of the compound concentration). The tests were performed in triplicate in two independent experiments.

[2] = target: T1, Homo sapiens triosephosphate isomerase (HsTIM) (Homo sapiens, UniProt P60174); experiment: Enzymatic activity of TIM, coupled enzyme assay; format: biochemical
T1 construct: made in house; host or cells: Escherichia coli
T1 sequence (P60174 whole entry): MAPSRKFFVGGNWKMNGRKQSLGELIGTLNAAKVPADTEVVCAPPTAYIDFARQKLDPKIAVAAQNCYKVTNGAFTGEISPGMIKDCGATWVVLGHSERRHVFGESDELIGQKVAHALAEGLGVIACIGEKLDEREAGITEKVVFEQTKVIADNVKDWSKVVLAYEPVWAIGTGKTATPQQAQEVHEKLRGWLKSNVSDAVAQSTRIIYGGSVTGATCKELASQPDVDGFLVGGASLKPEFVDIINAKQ
Description: as §1

R. microplus = experiment: Acaricidal activity on R. microplus (LIT and AIT, overall statement); format: in vivo; conditions: LIT 1 mM and AIT 1.5 mM
Description: After immersion, the fully engorged females were lightly dried with absorbent paper. […] The tubes carrying the eggs were closed with hydrophilic cotton, and were returned to the incubator chamber under the same conditions until the eggs hatched. The reproductive efficacy, as well as % control of each compound on R. microplus, was calculated according to published reports. The results were verified in two independent experiments. This assay was performed based on the method of Castro-Janer et al., 2011. […] The tubes were incubated in the same conditions as described above. The larvae were ready for testing after 14 to 21 days from egg-hatching. For the test, the compounds were diluted in DMSO, and were later resuspended in distilled water, always using 15% DMSO of the final solution volume. […] For the immersion procedure, tubes containing the larvae were placed vertically, without the cotton plug, and the larvae were taken with a brush from the top of the tube, ensuring they were viable. A cluster with a diameter of 2 mm of larvae was collected with a brush, and was later immersed in each solution, as well as in both control solutions, for 10 min. After this time, the solutions were drained, and the larvae were placed in 8.5 cm × 7.5 cm Whatman No. 1 filter papers. The filters were folded in the middle of the 8.5 cm side, and closed with 3 bulldog clips, forming packets. These packets were incubated for 24 h, under the same conditions as described previously, and then the percent of mortality was determined, considering it as the % of the control.

[3] = system: J774.1 murine macrophages; experiment: Cytotoxicity assay on murine macrophages (MTT); format: cell-based; conditions: for EC50: read-out: EC50 (µM) for Mammalian Cells; for IC50: J774.1, 48 h, read-out: IC50 (µM) Mammalian Cells
Description: J774.1 murine macrophages (ATCC, Rockville, MD, USA) were grown in a DMEM culture medium containing 4 mM L-glutamine, and supplemented with 10% FCS. The cells were seeded into a 96-well plate (5 × 10^4 cells in 200 µL culture medium) and incubated at 37 °C in a 5% CO2 atmosphere for 48 h, to allow cell adhesion before drug testing. Afterward, the cells were exposed for 48 h to the compounds (25–400 μM) or the vehicle (0.4% DMSO), and additional controls (cells in medium) were used in each test. Cell viability was then assessed by measuring the mitochondria-dependent reduction of MTT to formazan: for this, MTT in sterile PBS (0.2% glucose), pH 7.4, was added to the macrophages, to a final concentration of 0.1 mg/mL, and the cells were then incubated at 37 °C for 3 h. After removing the medium, the formazan crystals were dissolved in 180 μL of DMSO and 20 μL of MTT buffer (0.1 M glycine, 0.1 M NaCl, 0.5 mM EDTA, pH 10.5), and the absorbance was measured at 560 nm. The IC50 was defined as the drug concentration at which 50% of the cells were viable, relative to the control (no drug added), and was determined by analysis using OriginLab 8.5 Corporation, Northampton, MA, USA, sigmoidal regression (% of viable cells compared to the logarithm of the compound concentration). The tests were performed in triplicate in two independent experiments.

[4] = system: embryonic cell line BME26; experiment: Phenotypic screening on BME26 cell cultures (MTT viability); format: cell-based, R. microplus; conditions: for inhibition at 100 µM: read-out: % of Growth Inhibition
Description: The embryonic cell line BME26 from R. microplus (Centro de Biotecnologia, Universidade Federal do Rio Grande do Sul, Porto Alegre, RS, Brazil) was grown as adherent monolayers in a complete medium, as described previously, which consisted of L-15B300 medium supplemented with 5% heat-inactivated Fetal Bovine Serum (FBS) (Gibco Co., Grand Island, NY), 10% Tryptose Phosphate Broth (TPB) (BD), penicillin (100 U/mL), streptomycin ([…], Gibco Co., Grand Island, NY, USA), and 0.1% bovine lipoprotein concentrate (ICN), (pH 7.2). The suspension of embryonic BME26 cells from R. microplus was seeded into 24-well plates (5 × 10^5 cells/well) to a final volume of 500 μL in a complete medium, and allowed to attach. After 24 h incubation at 34 °C, the extracts (100 µg/mL final concentration) and the compounds were added to the final concentrations indicated (1–100 µM), and 0.05% dimethylsulfoxide (DMSO) was used in the negative control wells. After 24 h of treatment, 50 μL of 3-(4,5-dimethylthiazol-2-yl)-2,5-diphenyltetrazolium bromide (MTT) prepared in serum-free medium (5 mg/mL) was added to each well. The media were discarded after 2 additional hours of incubation, and 1 mL of acid-isopropyl alcohol (0.15% HCl in isopropyl alcohol) was added to dissolve the formazan crystals. The mixture was transferred to 1.5 mL tubes, centrifuged at 6000× g for 15 min, and the clear supernatant was collected in new tubes for absorbance measurement at 570 nm using quartz cuvettes in a UVmini-1240 UV–vis spectrophotometer (Shimadzu, Japan). Absorbance values of the control treatment were used for normalization (100% viability). The activity was determined by analysis using OriginLab8.5® sigmoidal regression (% of viable cells compared to the logarithm of the compound concentration). The half-maximal inhibitory concentration (IC50), defined as the drug concentration at which 50% of the cells were viable relative to the control (no drug added), was used as a measurement of activity. These experiments were performed in triplicate for each compound.

[5] = system: fully engorged females of the Mozo susceptible strain of R. microplus; experiment: Adult Immersion Test (AIT); format: in vivo; conditions: compounds 1.5 mM, 15 min immersion, 14 days
Description: This essay was performed based on Drummond et al., 1973, as each group of 5 fully engorged females of the Mozo susceptible strain of R. microplus was immersed in 50 mL tubes containing 10 mL of compounds at different concentrations (0.5, 1, 1.5, 2, 3.5 mM) for 15 min in four replicates. Four negative control groups were used (DMSO 10%). After immersion, the fully engorged females were lightly dried with absorbent paper. They were then placed in 100 mm disposable Petri dishes with their respective identification, and immediately incubated at 27 °C in an atmosphere with relative humidity (RH) of 85-90% for 14 days. […] The tubes carrying the eggs were closed with hydrophilic cotton, and were returned to the incubator chamber under the same conditions until the eggs hatched. The reproductive efficacy, as well as % control of each compound on R. microplus, was calculated according to published reports. The results were verified in two independent experiments.

[6] = BME26 cells, 24 h, MTT, read-out: IC50
[7] = synthetic compounds at 100 μM, BME26, 24 h
[8] = Mus musculus, J774.1, cytotoxicity

COc1ccc(/C=C2\CCCC3C2=NN(c2ccccn2)C3c2ccc(OC)cc2)cc1 (stereo not drawn) [Dm97]
inhibition at 100 µM [1]: 0%

COc1cc(/C=C/C(=O)CC(=O)/C=C/[c-]2cccc2)ccc1O.[Fe+2].c1cc[cH-]c1 [Mar105, [(1E,6E)-7-(4-hydroxy-3-methoxyphenyl)-3,5-dioxo-1,6-heptadien-1-yl]ferrocene]
% Inhibition of Enzymatic Activity of HsTIM at 10 µM ([2]; at 10 µM): 0% | acaricidal activity (in words) (R. microplus): did not show reproducible acaricidal activity | IC50 ([1]; read-out: IC50): 10 ± 1 µM | EC50 ([3]; cytotoxicity): > 25 µM

C=CCn1c(-c2ccc(Cl)cc2)cs/c1=N/N=C/c1cccs1 [compound 133]
IC50 [4, 6]: > 50 µM | inhibition at 100 µM [4, 7]: 71% | IC50 ([3]; Mus musculus): > 50 µM

Nc1ccc2c(c1)[n+]([O-])c1cc(Br)ccc1[n+]2[O-] [compound 181]
inhibition at 100 µM [4, 7]: 90% | IC50 ([3]; Mus musculus): < 25 µM

[O-][n+]1c2ccc(O)cc2[n+]([O-])c2cc(Cl)c(Cl)cc21 [compound 183]
inhibition at 100 µM [4, 7]: 62% | IC50 ([3]; Mus musculus): < 25 µM

C=CCn1c(-c2ccc(Cl)cc2)cs\c1=N/N=C/C=C/c1ccco1 [compound 266]
acaricidal activity (in words) (R. microplus): acaricidal potential against R. microplus similar to Amitraz | IC50 [4, 6]: > 100 µM | inhibition at 100 µM [4, 7]: 77% | IC50 ([3]; Mus musculus): > 50 µM

O=C(Oc1ccccc1)N1CCN(C(=O)Oc2ccccc2)CC1 [compound 715]
IC50 ([4]; 24 h): > 50 µM | inhibition at 100 µM ([4]; 24 h): 64%

O=C(/C=C/c1ccco1)/C=C/c1ccco1 [compound 795]
acaricidal activity (in words) (R. microplus): acaricidal potential | % of Mortality AIT [5]: 70 ± 7% | IC50 [4, 6]: 20 ± 3 µM | inhibition at 100 µM [4, 7]: 80% | IC50 ([3]; Mus musculus): > 50 µM

CC(/C=C/C(=O)/C=C/C(C)=C/c1ccco1)=C\c1ccco1 [compound 809]
IC50 [4, 6]: > 100 µM | inhibition at 100 µM [4, 7]: 50% | IC50 ([3]; Mus musculus): > 50 µM

Cc1ccc(/C=C/C=N/N2CCN(C/C=C/c3ccccc3)CC2)o1 [compound 903]
% of Mortality AIT [5]: 10 ± 1% | IC50 [4, 6]: > 50 µM | inhibition at 100 µM [4, 7]: 75% | IC50 ([3]; Mus musculus): > 50 µM

COc1cc(/C=C/C(=O)CC(=O)/C=C/c2ccc(O)c(OC)c2)ccc1O [compound 906, curcumin]
acaricidal activity (in words) (R. microplus): acaricidal potential against R. microplus similar to Amitraz | % of Mortality AIT [5]: 60 ± 8% | IC50 [4, 6]: 24 ± 3 µM | inhibition at 100 µM [4, 7]: 95% | IC50 ([3]; Mus musculus): < 25 µM

C(=C\c1ccco1)/C=N/N1CCN(C/C=C/c2ccccc2)CC1 [compound 912]
% of Mortality AIT [5]: 30 ± 8% | IC50 [4, 6]: > 50 µM | inhibition at 100 µM [4, 7]: 52% | IC50 ([3]; Mus musculus): > 50 µM

O=c1cc(O)n(Cc2ccccc2)c(=S)n1Cc1ccccc1 [compound 1088]
IC50 ([1]; read-out: IC50): > 50 µM

O=C(N/N=C/C=C/c1ccco1)c1cnn(-c2ccccc2)c1 [compound 1366]
inhibition at 100 µM [1]: 38%

CC(/C=N/NC(=[Se])NCCN1CCOCC1)=C\c1ccco1 [compound 1378]
inhibition at 10 µM [2]: 0% | IC50 ([1]; IC50 (µM)): 30 µM | inhibition at 100 µM [1]: 77%

FC(F)(F)C1=CSC(Nc2ccccc2)N1Cc1ccco1 (stereo not drawn) [compound 1385]
acaricidal activity (in words) (R. microplus): did not show reproducible acaricidal activity | IC50 ([1]; read-out: IC50): < 10 µM | inhibition at 10 µM [1]: 89% | EC50 [3, 8]: > 50 µM

CN=C1C=CC(=C(c2ccc(N(C)C)cc2)c2ccc(N(C)C)cc2)C=C1 [compound 1386]
acaricidal activity (in words) (R. microplus): did not show reproducible acaricidal activity | IC50 ([1]; read-out: IC50): < 10 µM | inhibition at 10 µM [1]: 100%

COc1ccc(/C=C/c2ccc3no[n+]([O-])c3c2)cc1 [compound 1404]
acaricidal activity (in words) (R. microplus): did not show reproducible acaricidal activity | IC50 ([1]; read-out: IC50): < 10 µM | inhibition at 10 µM [1]: 100% | EC50 [3, 8]: > 50 µM

O=C1C(Cl)=C(Oc2cccc3ccccc23)C(=O)c2ccccc21 [compound 1408]
IC50 ([1]; read-out: IC50): > 50 µM | inhibition at 100 µM [1]: 72%
